Tests used:
Format in all cases: in vivo
[1] = tested on: barnyard grass (Echinochloa crus-galli Beauv.); assay: Test Example 2: herbicidal effect on paddy field weeds after emergence; conditions: Dosage 5 kg/ha; one-leaved stage; 21 days after treatment
Summary of the method: (§1)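 Weeds in flooded paddy-soil pots were grown to the one-leaved stage, then the soil was treated with the compound solution at a set dosage.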

[2] = tested on: bulrush (Scirpus juncoides Roxb.); assay: as above; conditions: Dosage 5 kg/ha; one-leaved stage; 21 days after treatment
Summary of the method: as §1

[3] = tested on: monochoria (Monochoria vaginalis Presl); assay: as above; conditions: Dosage 5 kg/ha; one-leaved stage; 21 days after treatment
Summary of the method: as §1

[4] = tested on: soybean plant (So); assay: Test Example 3: phytotoxicity to upland crop plants, treatment before emergence; conditions: dosage 5 kg/ha
Summary of the method: (§2)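 Crops treated before emergence with sprayed liquid preparation of compound (prescribed concentration). Day 14: phytotoxicity graded per criterion.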

[5] = tested on: wheat (Wh); assay: as above; conditions: dosage 5 kg/ha
Summary of the method: as §2

[6] = tested on: soybean plant; assay: Test Example 4: phytotoxicity to upland crop plants, treatment after emergence; conditions: dosage 5 kg/ha, sprayed after emergence, judged 14 days after treatment
Summary of the method: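 Scores of weed-killing rate, with crop phytotoxicity, come from inspection 14 days after plants in soil vats, grown to specified leaf stages, are sprayed with a formulation holding the compound at a prescribed concentration.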

[7] = tested on: wheat; assay: as above; conditions: dosage 5 kg/ha, sprayed after emergence, judged 14 days after treatment
Summary of the method: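 Post-emergence foliar spray, compound at prescribed concentration, applied at defined leaf stages; weeds plus soybean/wheat grown in soil vats. Read-out: weed-killing rate and crop injury, 14 d post-treatment.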

[8] = tested on: bird's eye speedwell (Veronica persica Poir.), Vp; assay: Test Example 4: herbicidal effect on upland weeds after emergence; conditions: dosage 5 kg/ha; sprayed after emergence; judged 14 days after treatment
Summary of the method: (§3)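 Upland weeds and crop plants (soybean, wheat) are grown from seed in soil until they reach given leaf stages, then treated by spraying with the compound-containing agent; effects are judged two weeks later.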

[9] = tested on: forxtail grass (Alopecurus aequalis var. amurensis Ohwi), Am; assay: as above; conditions: dosage 5 kg/ha; sprayed after emergence; judged 14 days after treatment
Summary of the method: as §3

[10] = tested on: velvetleaf (Abutilon theophtasti L.), At; assay: as above; conditions: dosage 5 kg/ha; sprayed after emergence; judged 14 days after treatment
Summary of the method: as §3

[11] = tested on: barnyard grass (Echinochloa crus-galli Beauv.), Ec; assay: as above; conditions: dosage 5 kg/ha; sprayed after emergence; judged 14 days after treatment
Summary of the method: as §3

[12] = tested on: cocklebur (Xanthium strumarium L.), Xs; assay: as above; conditions: dosage 5 kg/ha; sprayed after emergence; judged 14 days after treatment
Summary of the method: as §3

[13] = tested on: cleavers (Galium aparine L.), Ga; assay: as above; conditions: dosage 5 kg/ha; sprayed after emergence; judged 14 days after treatment
Summary of the method: as §3

[14] = tested on: bird's eye speedwell (Veronica persica Poir.), Vp; assay: Test Example 3: herbicidal effect on upland weeds before emergence; conditions: dosage 5 kg/ha
Summary of the method: (§4)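 Read-out is the weed-killing rate, scored fourteen days after a single spray application made before the weeds emerged. The spray was a liquid agent carrying the active compound at a prescribed dose.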

[15] = tested on: forxtail grass (Alopecurus aequalis var. amurensis Ohwi), Am; assay: as above; conditions: foxtail grass, dosage 5 kg/ha
Summary of the method: as §4

[16] = tested on: velvetleaf (Abutilon theophtasti L.), At; assay: as above; conditions: dosage 5 kg/ha
Summary of the method: as §4

[17] = tested on: barnyard grass (Echinochloa crus-galli Beauv.), Ec; assay: as above; conditions: dosage 5 kg/ha
Summary of the method: as §4

[18] = tested on: cocklebur (Xanthium strumarium L.), Xs; assay: as above; conditions: dosage 5 kg/ha
Summary of the method: as §4

[19] = tested on: cleavers (Galium aparine L.), Ga; assay: as above; conditions: dosage 5 kg/ha
Summary of the method: as §4

[20] = tested on: barnyard grass (Echinochloa crus-galli Beauv.); assay: Test Example 1: herbicidal effect on paddy field weeds before emergence; conditions: Dosage 5 kg/ha
Summary of the method: (§5)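 Soil in pots is brought to paddy state and seeded with barnyard grass and bulrush; before germination, the soil receives a predetermined dosage of test compound in solution. After twenty-one days, control rate relative to untreated pots is calculated and graded.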

[21] = tested on: bulrush (Scirpus juncoides Roxb.); assay: as above; conditions: Dosage 5 kg/ha
Summary of the method: as §5

SMILES: CCCNC(=O)c1nc2c(cc1C(=O)Nc1c(CC)ccc(Cl)c1CC)CCCO2 [compound 414]
- Post-emergence treatment Barnyard grass (herbicidal effect) [1]: 5 (Weed-killing rate is 100%.)
- Post-emergence treatment Bulrush (herbicidal effect) [2]: 5 (Weed-killing rate is 100%.)
- Post-emergence treatment Monochoria (herbicidal effect) [3]: 5 (Weed-killing rate is 100%.)
- Phytotoxicity So [4]: 4 (Crop-killing rate is 90-99%.)
- Phytotoxicity Wh [5]: 5 (Crop-killing rate is 100%.)
- Phytotoxicity So [6]: 4 (Crop-killing rate is 90-99%.)
- Phytotoxicity Wh [7]: 5 (Crop-killing rate is 100%.)
- Herbicidal effect Vp [8]: 5 (Weed-killing rate is 100%.)
- Herbicidal effect Am [9]: 5 (Weed-killing rate is 100%.)
- Herbicidal effect At [10]: 5 (Weed-killing rate is 100%.)
- Herbicidal effect Ec [11]: 5 (Weed-killing rate is 100%.)
- Herbicidal effect Xs [12]: 5 (Weed-killing rate is 100%.)
- Herbicidal effect Ga [13]: 5 (Weed-killing rate is 100%.)
- Herbicidal effect Vp [14]: 5 (Weed-killing rate is 100%.)
- Herbicidal effect Am [15]: 5 (Weed-killing rate is 100%.)
- Herbicidal effect At [16]: 5 (Weed-killing rate is 100%.)
- Herbicidal effect Ec [17]: 5 (Weed-killing rate is 100%.)
- Herbicidal effect Xs [18]: 5 (Weed-killing rate is 100%.)
- Herbicidal effect Ga [19]: 5 (Weed-killing rate is 100%.)
- Pre-emergence treatment Barnyard grass (herbicidal effect) [20]: 5 (Weed-killing rate is 100%.)
- Pre-emergence treatment Bulrush (herbicidal effect) [21]: 5 (Weed-killing rate is 100%.)

SMILES: CCc1ccc(Cl)c(CC)c1NC(=O)c1cc2c(nc1C(=O)NC1CCCC1)OCCC2 [compound 423]
- Post-emergence treatment Barnyard grass (herbicidal effect) [1]: 5 (Weed-killing rate is 100%.)
- Post-emergence treatment Bulrush (herbicidal effect) [2]: 5 (Weed-killing rate is 100%.)
- Post-emergence treatment Monochoria (herbicidal effect) [3]: 5 (Weed-killing rate is 100%.)
- Phytotoxicity So [4]: 4 (Crop-killing rate is 90-99%.)
- Phytotoxicity Wh [5]: 5 (Crop-killing rate is 100%.)
- Phytotoxicity So [6]: 4 (Crop-killing rate is 90-99%.)
- Phytotoxicity Wh [7]: 5 (Crop-killing rate is 100%.)
- Herbicidal effect Vp [8]: 5 (Weed-killing rate is 100%.)
- Herbicidal effect Am [9]: 5 (Weed-killing rate is 100%.)
- Herbicidal effect At [10]: 5 (Weed-killing rate is 100%.)
- Herbicidal effect Ec [11]: 5 (Weed-killing rate is 100%.)
- Herbicidal effect Xs [12]: 5 (Weed-killing rate is 100%.)
- Herbicidal effect Ga [13]: 5 (Weed-killing rate is 100%.)
- Herbicidal effect Vp [14]: 5 (Weed-killing rate is 100%.)
- Herbicidal effect Am [15]: 5 (Weed-killing rate is 100%.)
- Herbicidal effect At [16]: 5 (Weed-killing rate is 100%.)
- Herbicidal effect Ec [17]: 5 (Weed-killing rate is 100%.)
- Herbicidal effect Xs [18]: 5 (Weed-killing rate is 100%.)
- Herbicidal effect Ga [19]: 5 (Weed-killing rate is 100%.)
- Pre-emergence treatment Barnyard grass (herbicidal effect) [20]: 5 (Weed-killing rate is 100%.)
- Pre-emergence treatment Bulrush (herbicidal effect) [21]: 5 (Weed-killing rate is 100%.)

SMILES: Cc1c(Cl)cccc1NC(=O)c1cc2c(nc1C(=O)NCC(C)C)OCCC2 [compound 431]
- Post-emergence treatment Barnyard grass (herbicidal effect) [1]: 5 (Weed-killing rate is 100%.)
- Post-emergence treatment Bulrush (herbicidal effect) [2]: 5 (Weed-killing rate is 100%.)
- Post-emergence treatment Monochoria (herbicidal effect) [3]: 5 (Weed-killing rate is 100%.)
- Phytotoxicity So [4]: 3 (Crop-killing rate is 70-89%.)
- Phytotoxicity Wh [5]: 3 (Crop-killing rate is 70-89%.)
- Phytotoxicity So [6]: 3 (Crop-killing rate is 70-89%.)
- Phytotoxicity Wh [7]: 4 (Crop-killing rate is 90-99%.)
- Herbicidal effect Vp [8]: 5 (Weed-killing rate is 100%.)
- Herbicidal effect Am [9]: 4 (Weed-killing rate is 90-99%.)
- Herbicidal effect At [10]: 5 (Weed-killing rate is 100%.)
- Herbicidal effect Ec [11]: 4 (Weed-killing rate is 90-99%.)
- Herbicidal effect Xs [12]: 4 (Weed-killing rate is 90-99%.)
- Herbicidal effect Ga [13]: 4 (Weed-killing rate is 90-99%.)
- Herbicidal effect Vp [14]: 5 (Weed-killing rate is 100%.)
- Herbicidal effect Am [15]: 4 (Weed-killing rate is 90-99%.)
- Herbicidal effect At [16]: 5 (Weed-killing rate is 100%.)
- Herbicidal effect Ec [17]: 5 (Weed-killing rate is 100%.)
- Herbicidal effect Xs [18]: 4 (Weed-killing rate is 90-99%.)
- Herbicidal effect Ga [19]: 4 (Weed-killing rate is 90-99%.)
- Pre-emergence treatment Barnyard grass (herbicidal effect) [20]: 5 (Weed-killing rate is 100%.)
- Pre-emergence treatment Bulrush (herbicidal effect) [21]: 5 (Weed-killing rate is 100%.)

SMILES: CCCNC(=O)c1nc2c(cc1C(=O)Nc1c(CC)ccc(Cl)c1CC)CCOC2 [compound 438]
- Post-emergence treatment Barnyard grass (herbicidal effect) [1]: 5 (Weed-killing rate is 100%.)
- Post-emergence treatment Bulrush (herbicidal effect) [2]: 5 (Weed-killing rate is 100%.)
- Post-emergence treatment Monochoria (herbicidal effect) [3]: 5 (Weed-killing rate is 100%.)
- Phytotoxicity So [4]: 5 (Crop-killing rate is 100%.)
- Phytotoxicity Wh [5]: 5 (Crop-killing rate is 100%.)
- Phytotoxicity So [6]: 4 (Crop-killing rate is 90-99%.)
- Phytotoxicity Wh [7]: 5 (Crop-killing rate is 100%.)
- Herbicidal effect Vp [8]: 5 (Weed-killing rate is 100%.)
- Herbicidal effect Am [9]: 5 (Weed-killing rate is 100%.)
- Herbicidal effect At [10]: 5 (Weed-killing rate is 100%.)
- Herbicidal effect Ec [11]: 5 (Weed-killing rate is 100%.)
- Herbicidal effect Xs [12]: 5 (Weed-killing rate is 100%.)
- Herbicidal effect Ga [13]: 5 (Weed-killing rate is 100%.)
- Herbicidal effect Vp [14]: 5 (Weed-killing rate is 100%.)
- Herbicidal effect Am [15]: 5 (Weed-killing rate is 100%.)
- Herbicidal effect At [16]: 5 (Weed-killing rate is 100%.)
- Herbicidal effect Ec [17]: 5 (Weed-killing rate is 100%.)
- Herbicidal effect Xs [18]: 5 (Weed-killing rate is 100%.)
- Herbicidal effect Ga [19]: 5 (Weed-killing rate is 100%.)
- Pre-emergence treatment Barnyard grass (herbicidal effect) [20]: 5 (Weed-killing rate is 100%.)
- Pre-emergence treatment Bulrush (herbicidal effect) [21]: 5 (Weed-killing rate is 100%.)

SMILES: CCc1ccc(Cl)c(CC)c1NC(=O)c1cc2c(nc1C(=O)NC1CCCC1)COCC2 [compound 447]
- Post-emergence treatment Barnyard grass (herbicidal effect) [1]: 5 (Weed-killing rate is 100%.)
- Post-emergence treatment Bulrush (herbicidal effect) [2]: 5 (Weed-killing rate is 100%.)
- Post-emergence treatment Monochoria (herbicidal effect) [3]: 5 (Weed-killing rate is 100%.)
- Phytotoxicity So [4]: 4 (Crop-killing rate is 90-99%.)
- Phytotoxicity Wh [5]: 5 (Crop-killing rate is 100%.)
- Phytotoxicity So [6]: 4 (Crop-killing rate is 90-99%.)
- Phytotoxicity Wh [7]: 5 (Crop-killing rate is 100%.)
- Herbicidal effect Vp [8]: 5 (Weed-killing rate is 100%.)
- Herbicidal effect Am [9]: 5 (Weed-killing rate is 100%.)
- Herbicidal effect At [10]: 5 (Weed-killing rate is 100%.)
- Herbicidal effect Ec [11]: 5 (Weed-killing rate is 100%.)
- Herbicidal effect Xs [12]: 5 (Weed-killing rate is 100%.)
- Herbicidal effect Ga [13]: 5 (Weed-killing rate is 100%.)
- Herbicidal effect Vp [14]: 5 (Weed-killing rate is 100%.)
- Herbicidal effect Am [15]: 5 (Weed-killing rate is 100%.)
- Herbicidal effect At [16]: 5 (Weed-killing rate is 100%.)
- Herbicidal effect Ec [17]: 5 (Weed-killing rate is 100%.)
- Herbicidal effect Xs [18]: 5 (Weed-killing rate is 100%.)
- Herbicidal effect Ga [19]: 5 (Weed-killing rate is 100%.)
- Pre-emergence treatment Barnyard grass (herbicidal effect) [20]: 5 (Weed-killing rate is 100%.)
- Pre-emergence treatment Bulrush (herbicidal effect) [21]: 5 (Weed-killing rate is 100%.)

From patent US6444617B1, “Fused-heterocycle dicarboxylic acid diamide derivatives or salts thereof, herbicide and usage thereof” (Nihon Nohyaku Co., Ltd., priority 1998, dated 2002)
